Target: T1, human PI4KIII-beta 13-828 (D316-330) (Homo sapiens, UniProt Q9UBF8)
T1 construct: human PI4KIII-beta 13-828 (D316-330)
Test: PI4 KB Activity Assay (ADP-GLO Kinase assay)
Type: biochemical
Conditions: 1 mM ATP, 60 μM phosphatidylinositol, 3 hours at room temperature; read-out: mean pIC50 (converted)
Description: The in vitro inhibition of human PI4KIII-beta 13-828 (D316-330) activity was determined by using the ADP-GLO Kinase assay kit from Promega. Inhibitors were dissolved in 100% DMSO at a concentration of 1 mM. Dilutions were prepared in 100% DMSO using a 1 in 3 serial step dilution. A 60 nL stamp from an 11-point titration was transferred to a white low volume 384 well Greiner assay plate ensuring a final DMSO concentration of 1% across the plate and a top final concentration of inhibitor of 10 μM. The PI4KIII-beta assay contained 25 mM Hepes pH 7.5 (NaOH), 10 mM MgCl2, 0.5 mM EGTA, 0.1% Triton X-100, 2 mM TCEP, and 0.1 mg/ml BSA, 1 mM ATP, 60 μM phosphatidylinositol, and 1.5 nM human PI4K-beta 13-828 (D316-330) in a total volume of 6 μL. The assay was initiated with the addition of enzyme, covered, and incubated at room temperature for 3 hours. The assays were stopped with the addition of 6 μl ADP-GLO Reagent containing 0.1% CHAPS to deplete the unconsumed ATP. The plates were incubated at room temperature for 60 min and then 12 μl of the Kinase Detection Reagent containing 0.1% CHAPS was added to convert ADP to ATP and introduce luciferase and luciferin. After 40 min incubation at room temperature the luminescent signal was read on a BMG Labtech PHERAstar FS with the following settings; Gain 3600, Focal height 13.7 mm, measurement interval time 1 s, Settling time 0.2 s. The inhibitory effect of the PI4K-beta activity of the compounds was evaluated by the IC50 of the response relative to the high, no compound, and low, no enzyme, controls by fitting to the four parameter dose response question.

T1 sequence (Q9UBF8 1-801 isoform Q9UBF8-2): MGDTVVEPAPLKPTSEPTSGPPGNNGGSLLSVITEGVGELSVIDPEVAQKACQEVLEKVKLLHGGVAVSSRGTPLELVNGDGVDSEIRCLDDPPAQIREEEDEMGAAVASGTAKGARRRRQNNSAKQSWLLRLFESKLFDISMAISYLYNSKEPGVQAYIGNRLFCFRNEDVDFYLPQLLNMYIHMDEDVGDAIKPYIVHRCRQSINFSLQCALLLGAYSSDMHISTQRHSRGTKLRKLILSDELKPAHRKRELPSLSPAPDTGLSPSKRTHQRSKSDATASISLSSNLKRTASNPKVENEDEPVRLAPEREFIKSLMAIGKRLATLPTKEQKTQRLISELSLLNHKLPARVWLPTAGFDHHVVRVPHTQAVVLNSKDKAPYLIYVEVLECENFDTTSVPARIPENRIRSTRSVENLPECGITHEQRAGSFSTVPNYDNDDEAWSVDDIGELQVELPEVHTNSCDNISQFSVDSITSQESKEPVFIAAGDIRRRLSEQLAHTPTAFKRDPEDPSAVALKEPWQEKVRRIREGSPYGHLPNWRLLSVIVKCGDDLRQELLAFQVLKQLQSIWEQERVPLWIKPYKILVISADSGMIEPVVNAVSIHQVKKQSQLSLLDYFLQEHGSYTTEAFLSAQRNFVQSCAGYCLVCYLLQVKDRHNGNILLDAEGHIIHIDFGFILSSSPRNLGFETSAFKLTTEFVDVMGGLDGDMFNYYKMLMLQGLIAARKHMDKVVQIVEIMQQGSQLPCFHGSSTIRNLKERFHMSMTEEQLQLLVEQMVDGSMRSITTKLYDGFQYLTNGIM

SMILES	IC50 [nM]
COc1ccc(-c2c(C)nn3c(NCc4cccc(-c5nccn5C)c4)cc(C(C)(C)CO)nc23)cc1S(=O)(=O)CCO [Compound 56, 2-(3-(3-((2-Hydroxyethyl)sulfonyl)-4-methoxyphenyl)-2-methyl-7-((3-(1-methyl-1H-imidazol-2-yl)benzyl)amino)pyrazolo[1,5-a]pyrimidin-5-yl)-2-methylpropan-1-ol]	≤ 3.98
COc1ccc(-c2c(C)nn3c(NCc4cccc(-c5nccn5C)c4)cc(C(C)(C)O)nc23)cc1C(=O)N(C)CC(C)O (single isomer, unassigned) [Compound 83, 5-(5-(2-Hydroxypropan-2-yl)-2-methyl-7-((3-(1-methyl-1H-imidazol-2-yl)benzyl)amino)pyrazolo[1,5-a]pyrimidin-3-yl)-N-(2-hydroxypropyl)-2-methoxy-N-methylbenzamide]	≤ 3.98
Cc1ccc(-c2c(C)nn3c(NCc4cccc(-c5nccn5C)c4)cc(C(C)(C)O)nc23)cc1C(=O)N1CCC[C@@H]1CO [Compound 25, (R)-(2-(hydroxymethyl)pyrrolidin-1-yl)(5-(5-(2-hydroxypropan-2-yl)-2-methyl-7-((3-(1-methyl-1H-imidazol-2-yl)benzyl)amino)pyrazolo[1,5-a]pyrimidin-3-yl)-2-methylphenyl)methanone]	≤ 3.98
Cc1ccc(-c2c(C)nn3c(NCc4cccc(-c5nccn5C)c4)cc(C(C)(C)O)nc23)cc1C(=O)N1CCC(O)C1 (stereo not drawn) [Compound 41]	≤ 3.98
Cc1nn2c(NCc3cccc(-c4nccn4C)c3)cc(C(C)(C)O)nc2c1-c1ccc(Cl)c(C(=O)N2CCC[C@@H]2CO)c1 [Compound 24]	≤ 3.98
Cc1nn2c(NCc3cccc(-c4nccn4C)c3)cc(C(C)(C)O)nc2c1-c1ccc(Cl)c(C(=O)N2CC[C@H](O)C2)c1 [Compound 18]	≤ 3.98
Cc1nn2c(NCc3cccc(-n4cccn4)c3)cc(C(C)(C)O)nc2c1-c1ccc(Cl)c(C(=O)N(C)CCO)c1 [Compound 48]	≤ 3.98
Cc1ccc(-c2c(C)nn3c(NCc4cccc(-c5nccn5C)c4)cc(C(C)(C)CO)nc23)cc1C(=O)N(C)CCCO [Compound 55, 5-(5-(1-Hydroxy-2-methylpropan-2-yl)-2-methyl-7-((3-(1-methyl-1H-imidazol-2-yl)benzyl)amino)pyrazolo[1,5-a]pyrimidin-3-yl)-N-(3-hydroxypropyl)-N,2-dimethylbenzamide]	≤ 3.98
COc1ccc(-c2c(C)nn3c(NCc4cccc(-c5nccn5C)c4)cc(C(O)C(C)C)nc23)cc1S(=O)(=O)CCO (stereo not drawn) [Compound 5]	≤ 3.98
Cc1ccc(-c2c(C)nn3c(NCc4cccc(-c5nccn5C)c4)cc(C(C)(C)O)nc23)cc1C(=O)N1CCC(C)(O)C1 (stereo not drawn) [Compound 31]	≤ 3.98
COc1ccc(-c2c(C)nn3c(NCc4cccc(-c5nccn5C)c4)cc(C(C)(C)O)nc23)cc1C(=O)N1CCC[C@@H]1CO [Compound 36, (R)-(2-(hydroxymethyl)pyrrolidin-1-yl)(5-(5-(2-hydroxypropan-2-yl)-2-methyl-7-((3-(1-methyl-1H-imidazol-2-yl)benzyl)amino)pyrazolo[1,5-a]pyrimidin-3-yl)-2-methoxyphenyl)methanone]	≤ 3.98
COc1ccc(-c2c(C)nn3c(NCc4cccc(-n5cccn5)c4)cc(C(C)(C)O)nc23)cc1C(=O)N(C)CCO [Compound 46]	≤ 3.98
Cc1nn2c(NCc3cccc(-c4nccn4C)c3)cc(C(C)(C)O)nc2c1-c1ccc(Cl)c(C(=O)N(C)CCO)c1 [Compound 37, 2-Chloro-N-(2-hydroxyethyl)-5-(5-(2-hydroxypropan-2-yl)-2-methyl-7-((3-(1-methyl-1H-imidazol-2-yl)benzyl)amino)pyrazolo[1,5-a]pyrimidin-3-yl)-N-methylbenzamide]	≤ 3.98
COc1ccc(-c2c(C)nn3c(NCc4cccc(-c5nccn5C)c4)cc(C4CCOCC4)nc23)cc1S(=O)(=O)CCO [Compound 64, 2-((2-Methoxy-5-(2-methyl-7-((3-(1-methyl-1H-imidazol-2-yl)benzyl)amino)-5-(tetrahydro-2H-pyran-4-yl)pyrazolo[1,5-a]pyrimidin-3-yl)phenyl)sulfonyl)ethan-1-ol]	≤ 3.98
Cc1ccc(-c2c(C)nn3c(NCc4cccc(-c5nccn5C)c4)cc(C(C)(C)O)nc23)cc1C(=O)N(C)C1CCOCC1 [Compound 45]	≤ 3.98
Cc1ccc(-c2c(C)nn3c(NCc4cccc(-c5nccn5C)c4)cc(C(C)(C)O)nc23)cc1C(=O)N(C)CC(C)O (stereo not drawn) [Compound 61]	≤ 3.98
CCN(CCO)C(=O)c1cc(-c2c(C)nn3c(NCc4cccc(-c5nccn5C)c4)cc(C(C)O)nc23)ccc1Cl (stereo not drawn) [Compound 15, 2-chloro-N-ethyl-N-(2-hydroxyethyl)-5-(5-(1-hydroxyethyl)-2-methyl-7-((3-(1-methyl-1H-imidazol-2-yl)benzyl)amino)pyrazolo[1,5-a]pyrimidin-3-yl)benzamide]	≤ 3.98
COc1ccc(-c2c(C)nn3c(NCc4cccc(-c5nccn5C)c4)cc(C(C)(C)O)nc23)cc1C(=O)N1CCCC1CO (stereo not drawn) [Compound 44]	≤ 3.98
CCN(CCO)C(=O)c1cc(-c2c(C)nn3c(NCc4cccc(-c5nccn5C)c4)cc(C(C)O)nc23)ccc1OC (stereo not drawn) [Compound 11]	≤ 3.98
COc1ccc(-c2c(C)nn3c(NCc4cccc(-c5nccn5C)c4)cc(C(C)O)nc23)cc1C(=O)N(C)CCCO (stereo not drawn) [Compound 9, 5-(5-(1-Hydroxyethyl)-2-methyl-7-((3-(1-methyl-1H-imidazol-2-yl)benzyl)amino)pyrazolo[1,5-a]pyrimidin-3-yl)-N-(3-hydroxypropyl)-2-methoxy-N-methylbenzamide]	≤ 3.98
CCC(O)(CC)c1cc(NCc2cccc(-c3nccn3C)c2)n2nc(C)c(-c3ccc(C)c(C(=O)N(C)CCCO)c3)c2n1 [Compound 68, 5-(5-(3-Hydroxypentan-3-yl)-2-methyl-7-((3-(1-methyl-1H-imidazol-2-yl)benzyl)amino)pyrazolo[1,5-a]pyrimidin3-yl)-N-(3-hydroxypropyl)-N,2-dimethylbenzamide]	≤ 3.98
CCC(O)c1cc(NCc2cccc(-c3nccn3C)c2)n2nc(C)c(-c3ccc(C)c(C(=O)N(C)[C@@H](C)CO)c3)c2n1 (single isomer, unassigned) [Compound 80]	≤ 3.98
COc1ccc(-c2c(C)nn3c(NCc4cccc(-c5nccn5C)c4)cc(C(C)(C)O)nc23)cc1S(=O)(=O)CCO [Compound 6, 2-(3-(3-((2-Hydroxyethyl)sulfonyl)-4-methoxyphenyl)-2-methyl-7-((3-(1-methyl-1H-imidazol-2-yl)benzyl)amino)pyrazolo[1,5-a]pyrimidin-5-yl)propan-2-ol]	≤ 3.98
COc1ccc(-c2c(C)nn3c(NCc4cccc(-c5nccn5C)c4)cc(C(C)(C)O)nc23)cc1C(=O)N(C)CC(C)O (stereo not drawn) [Compound 82, 5-(5-(2-Hydroxypropan-2-yl)-2-methyl-7-((3-(1-methyl-1H-imidazol-2-yl)benzyl)amino)pyrazolo[1,5-a]pyrimidin-3-yl)-N-(2-hydroxypropyl)-2-methoxy-N-methylbenzamide]	≤ 3.98
COc1ccc(-c2c(C)nn3c(NCc4cccc(-n5cccn5)c4)cc(C(C)(C)O)nc23)cc1C(=O)N(C)CCCO [Compound 33]	≤ 3.98
CCC(O)c1cc(NCc2cccc(-c3nccn3C)c2)n2nc(C)c(-c3ccc(C)c(C(=O)N(C)CCCO)c3)c2n1 (single isomer, unassigned) [Compound 69, N-(3-Hydroxypropyl)-5-(5-(1-hydroxypropyl)-2-methyl-7-((3-(1-methyl-1H-imidazol-2-yl)benzyl)amino)pyrazolo[1,5-a]pyrimidin-3-yl)-N,2-dimethylbenzamide]	≤ 3.98
CCC(CO)c1cc(NCc2cccc(-c3nccn3C)c2)n2nc(C)c(-c3ccc(C)c(C(=O)N(C)CCCO)c3)c2n1 (single isomer, unassigned) [Compound 66, 5-(5-(1-Hydroxybutan-2-yl)-2-methyl-7-((3-(1-methyl-1H-imidazol-2-yl)benzyl)amino)pyrazolo[1,5-a]pyrimidin-3-yl)-N-(3-hydroxypropyl)-N,2-dimethylbenzamide]	≤ 3.98
Cc1nn2c(NCc3cccc(-c4nccn4C)c3)cc(C(C)O)nc2c1-c1ccc(Cl)c(C(=O)N(C)CCCO)c1 (single isomer, unassigned) [Compound 57, 2-Chloro-5-(5-(1-hydroxyethyl)-2-methyl-7-((3-(1-methyl-1H-imidazol-2-yl)benzyl)amino)pyrazolo[1,5-a]pyrimidin-3-yl)-N-(3-hydroxypropyl)-N-methylbenzamide]	≤ 3.98
Cc1nn2c(NCc3cccc(-c4nccn4C)c3)cc(C(C)O)nc2c1-c1ccc(Cl)c(C(=O)N2CC[C@H](O)C2)c1 (stereo partly drawn) [Compound 14]	≤ 3.98
CCC(O)c1cc(NCc2cccc(-c3nccn3C)c2)n2nc(C)c(-c3ccc(OC)c(S(=O)(=O)CCO)c3)c2n1 (single isomer, unassigned) [Compound 75, 1-(3-(3-((2-Hydroxyethyl)sulfonyl)-4-methoxyphenyl)-2-methyl-7-((3-(1-methyl-1H-imidazol-2-yl)benzyl)amino)pyrazolo[1,5-a]pyrimidin-5-yl)propan-1-ol]	≤ 3.98

— patent US11649238B2, “Substituted pyrazolo[1,5-a]pyrimidines as PI4K inhibitors” (GLAXOSMITHKLINE INTELLECTUAL PROPERTY DEVELOPMENT LIMITED, priority 2018, dated 2023)
